Here are results for two compounds from US11129861B2, “Methods for treating inflammatory diseases” (OKCHUNDANG CO., LTD., priority 2017, dated 2021).

The structures appear in SMILES notation.

Data set [1] can be described thus: Body weight measurements, expectorant assay. In kind it is in vivo, mice. Conditions: 250 mg/kg orally. As for the experimental part: One-hundred twenty one 6-week male SPF/VAF CrljOri: CD1[ICR] mice (OrientBio, Seungnam, Korea; body weight ranged in 29-32 g upon receipt) were prepared, and seven groups of 10 mice each were selected based on the body weights at 7 days after acclimatization based on the body weights (Average:34.75±1.32 g, ranged in 31.6-37.4 g), as follows. Animals husbandries were conducted as same as antitussive assay. All laboratory animals were treated according to the national regulations of the usage and welfare of laboratory animals, and approved by the Institutional Animal Care and Use Committee in Daegu Haany University (Gyeongsan, Gyeongbuk, Korea) [DHU2016-035, Apr. 22, 2016; ANNEX IV].
AR, KOG and SKOG were orally administered as same as antitussive assay, once a day for 11 days before phenol red treatment. In addition, AM was also dissolved in distilled water as 25 mg/ml concentrations, and orally administered in a volume of 10 ml/kg (as equivalence to 250 mg/kg), once a day for 11 days before phenol red treatment. In intact vehicle control mice, distilled water 10 ml/kg was orally administered, instead of AR, KOG, SKOG or AM to provide same restrain stresses, in the present experiment.
Changes of body weights and gains were measured as same methods described in Example 3.

Data set [2] concerns mice. As to the kind of experiment: Expectorant assay: secondary bronchus histopathology. Conditions: 250 mg/kg orally, 11 days; compared with intact vehicle control. In kind it is in vivo. The method, then:
AR, KOG and SKOG were orally administered as same as antitussive assay, once a day for 11 days before phenol red treatment. In addition, AM was also dissolved in distilled water as 25 mg/ml concentrations, and orally administered in a volume of 10 ml/kg (as equivalence to 250 mg/kg), once a day for 11 days before phenol red treatment. In intact vehicle control mice, distilled water 10 ml/kg was orally administered, instead of AR, KOG, SKOG or AM to provide same restrain stresses, in the present experiment. Simultaneously, some parts of individual lung (left lateral lobes) were sampled at trachea excisions, and fixed in 10% NBF, and crossly trimmed. Then embedded in paraffin, sectioned (3˜4 μm) and stained with H&E for general histopathology or PAS (periodic acid schiff) for mucous producing cells, and after that the histopathological profiles of each sample were observed under light microscope. […] The histopathologist was blinds to group distribution when this analysis was made, and at least five repeated measurements in same histological specimens prepared were considered to calculate each mean histomorphometrical value, whenever possible, in this histopathological evaluation.

Data set [3] relates to mice. As to the kind of experiment: Expectorant assay: mucous secretions by phenol red (TLF OD, body surface redness). It counts as in vivo. As to conditions: 250 mg/kg orally, 11 days. The method, then: One-hundred twenty one 6-week male SPF/VAF CrljOri: […] Animals husbandries were conducted as same as antitussive assay. All laboratory animals were treated according to the national regulations of the usage and welfare of laboratory animals, and approved by the Institutional Animal Care and Use Committee in Daegu Haany University (Gyeongsan, Gyeongbuk, Korea) [[…] and SKOG were orally administered as same as antitussive assay, once a day for 11 days before phenol red treatment. In addition, AM was also dissolved in distilled water as 25 mg/ml concentrations, and orally administered in a volume of 10 ml/kg (as equivalence to 250 mg/kg), once a day for 11 days before phenol red treatment. In intact vehicle control mice, distilled water 10 ml/kg was orally administered, instead of AR, KOG, SKOG or AM to provide same restrain stresses, in the present experiment. Mucous secretions were measured by single intraperitoneal injection of 5% phenol red (Junsei Chemical Co. […] After ultrasonic for 15 min using ultrasonicator (Model 5210, Branson Ultrasonics, Danbury, Conn., USA), 1 ml NaHCO3 solution (5%, w/v) add to the normal saline, and optical density of these prepared trachea lavage fluid (TLF) were measured at 546 nm using a microplate reader (Model Sunrise, Tecan, Männedorf, Switzerland) as described previously with some modifications.

The nature of data set [4]: Body weight measurements, anti-inflammatory assay. It counts as in vivo, mice. As to conditions: 1 mg/kg orally. The method, then: (§1) One-hundred thirty two 6-week male SPF/VAF CrljOri:CD1 [ICR] mice (OrientBio, Seungnam, Korea; body weight ranged in 29-32 g upon receipt) were prepared, and eight groups of 10 mice each were selected based on the body weights at 7 days after acclimatization based on the body weights (intact control: 33.88±1.11 g, ranged in 31.8˜35.4 g; Xylene treated mice: 33.85±1.32 g, ranged in 31.1-36.6 g), as follows. Animals husbandries were conducted as same as antitussive and expectorant assays. All laboratory animals were treated according to the national regulations of the usage and welfare of laboratory animals, and approved by the Institutional Animal Care and Use Committee in Daegu Haany University (Gyeongsan, Gyeongbuk, Korea) [DHU2016-036, Apr. 22, 2016; ANNEX V].
AR, KOG and SKOG were orally administered as same as antitussive and expectorant assays, once a day for 11 days before xylene topical applications. In addition, DEXA-water soluble granules were dissolved indistilled water as 1.5 mg/ml concentrations (0.1 mg/ml based on DEXA itself), and also orally administered in a volume of 10 ml/kg (as equivalence to 1 mg/kg based on DEXA itself), once a day for 11 days before xylene topical applications. In intact vehicle and xylene control mice, distilled water 10 ml/kg was orally administered, instead of AR, KOG, SKOG or DEXA to provide same restrain stresses, in the present experiment.
Changes of body weights and gains were measured as same methods described in Example 3 and 4.

The subject of data set [5] is xylene topically applied mice. The data set can be described thus: Anti-inflammatory assay: ear histopathology. Conditions: 1 mg/kg orally, 11 days; compared with xylene control mice. It counts as in vivo.
Protocol: Acute inflammations were induced by single topical application of 0.03 ml of xylene (Duksan Pure Chemical Co. Ltd., Ansan, Korea) to the anterior surface of the right ear at 1 hour after last 11th test substance administration, as described previously with some modifications. Equal volume of saline was topically applied in intact vehicle mouse ears, instead of xylene, in our experiment.
After ear weight measurement, individual ear samples were fixed in 10% NBF, and crossly trimmed. Then embedded in paraffin, sectioned (3˜4 μm) and stained with Hematoxylin and eosin (H&E) for general histopathology or toluidine blue for mast cells, and after that the histopathological profiles of each sample were observed under light microscope. To more detail changes, mean total, epidermis and dermis thicknesses of the ear anterior surface, numbers of infiltrated inflammatory cells and mast cells on the dermis of ear (cells/mm^2), collagen occupied region percentages on the dermis (%/mm2) were analyzed using a computer assisted image analysis program, according to previously established methods, respectively. The histopathologist was blinds to group distribution when this analysis was made, and at least five repeated measurements in same histological specimens prepared were considered to calculate each mean histomorphometrical value, whenever possible, in this histopathological evaluation.
Data set [6] deals with xylene topically applied mice. As to the kind of experiment: Anti-inflammatory assay: xylene-induced ear inflammation, ear weight and gross signs. It counts as in vivo. As to conditions: 1 mg/kg orally, 11 days; compared with xylene control mice. As for the experimental part: as §1
AR, KOG and SKOG were orally administered as same as antitussive and expectorant assays, once a day for 11 days before xylene topical applications. […]
Two hours after topical application of xylene, circular sections of induced ear were taken using a cork borer with a 7-mm diameter and weighed as absolute wet-weights, and then the relative weights (% of bodyweights) of the ears were calculated to reduce the differences from individual body weights, as follow Equation [2], in the current experiment. […]

Setting [7] is: compared with intact vehicle control.
Where [8] appears, read: 11 days, xylene topically applied mice.

Regarding `Nc1c(Br)cc(Br)cc1CN[C@H]1CC[C@H](O)CC1` [AM, ambroxol], in data set [1] (11 days, expectorant assay), the “Body weight gains (g) [B − A]” value turned out to be 1.99 ± 0.73 g, the “Body weights (g) at test material administration First [A]” value is listed as 29.23 ± 1.16 g and the “Body weights (g) at test material administration Last [B]” value was 31.22 ± 1.65 g. For the same compound, the “body weight gains during 11 days, change” value in data set [1] (setting [7]) is reported as 6.42%. Besides, in the data set on mice [2], the “Mean numbers of secondary bronchus epithelial PAS positive mucous producing cells, change” value worked out at 231.58% and the “Mean thicknesses of secondary bronchus mucosa, change” value amounted to 41.69%. Besides, the “body redness (body surface gross findings)” value with mice [3] (30 min after intraperitoneal injection of phenol red, vs intact control) is recorded as “dramatic increases of body redness”. Further, the “TLF OD values, change” value in the data set on mice [3] (setting [7]) is listed as 33.95%.

`C[C@@H]1C[C@H]2[C@@H]3CCC4=CC(=O)C=C[C@]4(C)[C@@]3(F)[C@@H](O)C[C@]2(C)[C@@]1(O)C(=O)CO` [DEXA, dexamethasone]: the “body weight gains during 11 days, change” value in data set [4] (11 days, compared with xylene control mice) was −145.10%. In data set [4] (setting [8]), the “Body weight gains (g) [B − A]” value is −0.92 ± 0.76^ab g, the “Body weights (g) at test material administration First [A]” value was 28.72 ± 1.10 g and the “Body weights (g) at test material administration Last [B]” value is 27.80 ± 1.66^ab g. For the same compound, in data set [4] (from 2 days after initial administration, compared with intact vehicle and xylene control mice), the “body weights during administration period” value is reported as “significant (p<0.01 or p<0.05) decreases of body weights”. In addition, in data set [5], the “Mean ear dermis thicknesses, change” value is listed as −60.02%; the “Mean ear epidermis thicknesses, change” value is −6.35%; the “Mean numbers of infiltrated inflammatory cells on the ear dermis, change” value is −93.13%; the “Mean numbers of infiltrated mast cells on the ear dermis, change” value is listed as 647.56%. Further, in data set [5], the “Mean percentages of collagen occupied regions on the ear dermis, change” value is 189.63% and the “Mean total ear thicknesses, change” value is recorded as −62.39%. Also, in data set [6], the “absolute ear weights, change” value is −48.52% and the “relative ear weights, change” value is recorded as −42.61%.
